Test results from US9815846B2 (Merck Sharp & Dohme Corp., priority 2014, dated 2017).
pIC50: −log10 of the molar value.

Target: human TrkA receptor (Homo sapiens (Human), UniProt P04629)
Assay: DiscoverX PathHunter TrkA functional assay (NGF-stimulated U2OS cells)
Type: cell-based
Conditions: U2OS cells expressing human TrkA-PK, Shc1-EA and p75NTR; compound 1 h, then NGF at ~80% of maximal response for 3 h; luminescence

Sequence of human TrkA receptor (P04629 33-796): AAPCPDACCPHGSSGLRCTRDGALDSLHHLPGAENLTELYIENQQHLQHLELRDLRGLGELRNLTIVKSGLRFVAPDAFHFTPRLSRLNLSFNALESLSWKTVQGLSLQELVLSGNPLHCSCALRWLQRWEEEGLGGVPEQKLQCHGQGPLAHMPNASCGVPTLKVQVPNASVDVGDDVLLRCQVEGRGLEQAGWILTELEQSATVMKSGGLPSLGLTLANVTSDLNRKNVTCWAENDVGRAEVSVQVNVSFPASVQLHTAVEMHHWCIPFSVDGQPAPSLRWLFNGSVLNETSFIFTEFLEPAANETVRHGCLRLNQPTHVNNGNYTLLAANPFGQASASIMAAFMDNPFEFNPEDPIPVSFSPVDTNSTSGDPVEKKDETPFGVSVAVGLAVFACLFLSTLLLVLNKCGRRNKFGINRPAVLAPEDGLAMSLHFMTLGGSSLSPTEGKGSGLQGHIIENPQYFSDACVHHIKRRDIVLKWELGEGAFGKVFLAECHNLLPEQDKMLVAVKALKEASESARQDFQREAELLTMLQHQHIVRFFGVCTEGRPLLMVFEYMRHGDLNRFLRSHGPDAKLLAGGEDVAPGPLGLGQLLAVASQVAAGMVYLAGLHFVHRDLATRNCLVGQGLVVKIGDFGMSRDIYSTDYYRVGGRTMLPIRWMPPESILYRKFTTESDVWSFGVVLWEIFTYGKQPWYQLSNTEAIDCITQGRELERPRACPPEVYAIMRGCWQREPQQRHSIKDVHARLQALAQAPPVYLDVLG

pIC50 | Structure (SMILES)
8.08 | Cn1ccc(-c2cc(C(=O)Nc3nc(CC(N)=O)ccc3-c3ccccc3)c(F)cc2C(F)(F)F)n1 [Example 205, N-(6-(2-Amino-2-oxoethyl)-3-phenylpyridin-2-yl)-2-fluoro-5-(1-methyl-1H-pyrazol-3-yl)-4-(trifluoromethyl)benzamide]
8.89 | Cn1ccc(-c2cc(C(=O)Nc3ccc(C4CN(C(=O)CO)C4)nc3-c3ccccc3)c(F)cc2C(F)(F)F)n1 [Example 206, 2-Fluoro-N-(6-(1-(2-hydroxyacetyl)azetidin-3-yl)-2-phenylpyridin-3-yl)-5-(1-methyl-1H-pyrazol-3-yl)-4-(trifluoromethyl)benzamide]
8.96 | Cn1ccc(-c2cc(C(=O)Nc3ccc(C4CN(C(=O)CN)C4)nc3-c3ccccc3)c(F)cc2C(F)(F)F)n1 [Example 207, 2-fluoro-N-(6-(1-glycylazetidin-3-yl)-2-phenylpyridin-3-yl)-5-(1-methyl-1H-pyrazol-3-yl)-4-(trifluoromethyl)benzamide]
8.52 | CC(=O)N1CC(c2ccc(NC(=O)c3cc(-c4ccn(C)n4)c(C(F)(F)F)cc3F)c(-c3ccccc3)n2)C1 [Example 208, N-(6-(1-acetylazetidin-3-yl)-2-phenylpyridin-3-yl)-2-fluoro-5-(1-methyl-1H-pyrazol-3-yl)-4-(trifluoromethyl)benzamide]
8.70 | Cn1ccc(-c2cc(C(=O)Nc3cnc(NC(=O)CO)nc3-c3ccccc3)c(F)cc2C(F)(F)F)n1 [Example 209, 2-Fluoro-N-(2-(2-hydroxyacetamido)-4-phenylpyrimidin-5-yl)-5-(1-methyl-1H-pyrazol-3-yl)-4-(trifluoromethyl)benzamide]
8.60 | Cn1ccc(-c2cc(C(=O)Nc3cnc(NCCO)nc3-c3ccccc3)ccc2C(F)(F)F)n1 [Example 210, N-(2-((2-hydroxyethyl)amino)-4-phenylpyrimidin-5-yl)-3-(1-methyl-1H-pyrazol-3-yl)-4-(trifluoromethyl)benzamide]
8.59 | Cn1ccc(-c2cc(C(=O)Nc3cnc(N4CCNC4=O)nc3-c3ccccc3)c(F)cc2C(F)(F)F)n1 [Example 211, 2-fluoro-5-(1-methyl-1H-pyrazol-3-yl)-N-(2-(2-oxoimidazolidin-1-yl)-4-phenylpyrimidin-5-yl)-4-(trifluoromethyl)benzamide]
8.55 | Cn1ccc(-c2cc(C(=O)Nc3cnc(N)nc3-c3ccccc3)c(F)cc2C(F)(F)F)n1 [Example 212, N-(2-amino-4-phenylpyrimidin-5-yl)-2-fluoro-5-(1-methyl-1H-pyrazol-3-yl)-4-(trifluoromethyl)benzamide]
8.85 | Cn1ccc(-c2cc(C(=O)Nc3cnc(NCC(N)=O)nc3-c3ccccc3)c(F)cc2C(F)(F)F)n1 [Example 213, N-(2-((2-amino-2-oxoethyl)amino)-4-phenylpyrimidin-5-yl)-2-fluoro-5-(1-methyl-1H-pyrazol-3-yl)-4-(trifluoromethyl)benzamide]
8.34 | Cn1ccc(-c2cc(C(=O)Nc3ncc(CN4CCOC4=O)nc3-c3ccccc3)c(F)cc2C(F)(F)F)n1 [Example 214, 2-Fluoro-5-(1-methyl-1H-pyrazol-3-yl)-N-(5-((2-oxooxazolidin-3-yl)methyl)-3-phenylpyrazin-2-yl)-4-(trifluoromethyl)benzamide]
9.44 | Cn1ccc(-c2cc(C(=O)Nc3ccc(C4CNC(=O)N4)nc3-c3ccccc3)c(F)cc2C(F)(F)F)n1 (stereo not drawn) [Example 215, 2-Fluoro-5-(1-methyl-1H-pyrazol-3-yl)-N-(6-(2-oxoimidazolidin-4-yl)-2-phenylpyridin-3-yl)-4-(trifluoromethyl)benzamide]
8.74 | Cn1ccc(-c2cc(C(=O)Nc3cnc(OCC(N)=O)nc3-c3ccccc3)c(F)cc2C(F)(F)F)n1 [Example 216, N-(2-(2-Amino-2-oxoethoxy)-4-phenylpyrimidin-5-yl)-2-fluoro-5-(1-methyl-1H-pyrazol-3-yl)-4-(trifluoromethyl)benzamide]
9.49 | Cn1ccc(-c2cc(C(=O)Nc3cnc(CN4CCCC4=O)nc3-c3ccccc3)c(F)cc2C(F)(F)F)n1 [Example 219, 2-fluoro-5-(1-methyl-1H-pyrazol-3-yl)-N-(2-((2-oxopyrrolidin-1-yl)methyl)-4-phenylpyrimidin-5-yl)-4-(trifluoromethyl)benzamide]
9.00 | Cn1ccc(-c2cc(C(=O)Nc3cnc(CN4CCCCC4=O)nc3-c3ccccc3)c(F)cc2C(F)(F)F)n1 [Example 220, 2-fluoro-5-(1-methyl-1H-pyrazol-3-yl)-N-(2-((2-oxopiperidin-1-yl)methyl)-4-phenylpyrimidin-5-yl)-4-(trifluoromethyl)benzamide]
8.72 | Cn1ccc(-c2cc(C(=O)Nc3cnc(CN4CCCCCC4=O)nc3-c3ccccc3)c(F)cc2C(F)(F)F)n1 [Example 221, 2-fluoro-5-(1-methyl-1H-pyrazol-3-yl)-N-(2-((2-oxoazepan-1-yl)methyl)-4-phenylpyrimidin-5-yl)-4-(trifluoromethyl)benzamide]
9.66 | Cn1ccc(-c2cc(C(=O)Nc3cnc(CN4CCCOC4=O)nc3-c3ccccc3)c(F)cc2C(F)(F)F)n1 [Example 222, 2-fluoro-5-(1-methyl-1H-pyrazol-3-yl)-N-(2-((2-oxo-1,3-oxazinan-3-yl)methyl)-4-phenylpyrimidin-5-yl)-4-(trifluoromethyl)benzamide]
8.80 | Cn1ccc(-c2cc(C(=O)Nc3cnc(CN4CCOCC4=O)nc3-c3ccccc3)c(F)cc2C(F)(F)F)n1 [Example 223, 2-fluoro-5-(1-methyl-1H-pyrazol-3-yl)-N-(2-((3-oxomorpholino)methyl)-4-phenylpyrimidin-5-yl)-4-(trifluoromethyl)benzamide]
8.80 | Cn1ccc(-c2cc(C(=O)Nc3cnc(Cn4ccnc4)nc3-c3ccccc3)ccc2C(F)(F)F)n1 [Example 224, N-(2-((1H-imidazol-1-yl)methyl)-4-phenylpyrimidin-5-yl)-3-(1-methyl-1H-pyrazol-3-yl)-4-(trifluoromethyl)benzamide]
8.92 | Cn1ccc(-c2cc(C(=O)Nc3cnc(Cn4cccnc4=O)nc3-c3ccccc3)c(F)cc2C(F)(F)F)n1 [Example 225, 2-fluoro-5-(1-methyl-1H-pyrazol-3-yl)-N-(2-((2-oxopyrimidin-1(2H)-yl)methyl)-4-phenylpyrimidin-5-yl)-4-(trifluoromethyl)benzamide]
9.46 | Cn1ccc(-c2cc(C(=O)Nc3cnc(Cn4ccc(=O)[nH]c4=O)nc3-c3ccccc3)c(F)cc2C(F)(F)F)n1 [Example 226, N-(2-((2,4-dioxo-3,4-dihydropyrimidin-1(2H)-yl)methyl)-4-phenylpyrimidin-5-yl)-2-fluoro-5-(1-methyl-1H-pyrazol-3-yl)-4-(trifluoromethyl)benzamide]
9.62 | Cn1ccc(-c2cc(C(=O)Nc3cnc(Cn4cn[nH]c4=O)nc3-c3ccccc3)c(F)cc2C(F)(F)F)n1 [Example 227, 2-fluoro-5-(1-methyl-1H-pyrazol-3-yl)-N-(2-((5-oxo-1,5-dihydro-4H-1,2,4-triazol-4-yl)methyl)-4-phenylpyrimidin-5-yl)-4-(trifluoromethyl)benzamide]
